The values that follow come from patent US20110183978A1, “Phenylpyri(mi)dinylazoles” (Bayer CropScience AG, priority 2009, published 2011).

One data set in a line: physchem. The settings on record: LogPA.
For `Fc1ccc(-c2nn(C3CCCCC3)cc2-c2ccncc2)cc1` [Compound 168], the chromatographic logP – broadly, lipophilicity estimated from chromatographic retention – came out at 1.91.

For the molecule `CC(C)Nc1nccc(-c2c[nH]nc2-c2ccc(F)cc2)n1` [Compound 172], the chromatographic logP worked out at 1.37. Consider `N#Cc1[nH]nc(-c2ccc(F)cc2)c1-c1ccncc1` [Compound 175], for which the chromatographic logP stood at 1.08. Still for that read-out and setting: to `FCC(CF)n1cc(-c2ccncc2)c(-c2ccc(F)cc2)n1` [Compound 177] belongs 1.16; to `CC(C)Cn1cc(-c2ccnc(NCc3ccccc3)n2)c(-c2ccc(F)cc2)n1` [Compound 182], 3.15; to `CC(C)Cn1cc(-c2ccnc(N(C(=O)C(C)C)C(C)C)n2)c(-c2ccc(F)cc2)n1` [Compound 185], 4.25. Regarding `CC(C)Cn1cc(-c2ccnc(N(C(=O)C(C)(C)C(=O)C(C)C)C(C)C)n2)c(-c2ccc(F)cc2)n1` [Compound 186], the chromatographic logP was 3.02. On the same count and under the same terms, to `CC(C)Cn1cc(-c2ccnc(N3CCCC3=O)c2)c(-c2ccc(F)cc2)n1` [Compound 187] belongs 3.19; to `CC(C)Cn1cc(-c2ccnc(N(C(=O)C(C)C)C(=O)C(C)C)n2)c(-c2ccc(F)cc2)n1` [Compound 188], 4.74; to `CCn1cc(-c2ccnc(NC(=O)Cc3ccccc3)c2)c(-c2ccc(F)cc2)n1` [Compound 190], 2.72. On to `CCC(=O)Nc1cc(-c2c(-c3ccc(Cl)cc3F)nn(C)c2C(F)(F)F)ccn1` [Compound 197], for which the chromatographic logP came to 3.32.

The same data set, now with this note: LogPA (logP of the stated pure compound or, in a mixture, of the main isomer, 1-substituted 3-aryl-1H-pyrazole).
With `CC(C)=CCn1cc(-c2ccncn2)c(-c2cccc(Cl)c2)n1` [Compound 34], the chromatographic logP was 3.5. The same measure, in the same setting: for `FC(F)(F)c1cccc(-c2nn(C3CCCCO3)cc2-c2cc(N3CCOCC3)ncn2)c1` (stereo not drawn) [Compound 36] the value was 2.1; for `CCC(C)n1ncc(-c2ccncc2)c1-c1c(F)cccc1F` (stereo not drawn) [Compound 38], 1.9.

Consider `Nc1cc(-c2cn(C3CCCCO3)nc2-c2ccc(F)cc2)ccn1` (stereo not drawn) [Compound 39], for which the chromatographic logP amounted to 1.38.

As to `FC(F)(F)c1cccc(-c2nn(C3CCCCO3)cc2-c2ccncc2)c1` (stereo not drawn) [Compound 42], the chromatographic logP worked out at 1.84. With `COc1ccc(-c2nn(C3CCCCO3)cc2-c2ccncc2)cc1` (stereo not drawn) [Compound 43], the chromatographic logP amounted to 1.24. With `COc1ccc(-c2c(-c3ccncc3)cnn2C2CCCCO2)c2ccccc12` (stereo not drawn) [Compound 45], the chromatographic logP was 1.69. `CC(C)(C)C(=O)Nc1cc(-c2cn(C3CCCCO3)nc2-c2cccc(C(F)(F)F)c2)ccn1` (stereo not drawn) [Compound 48]: the chromatographic logP worked out at 4.1. Regarding `C#CCn1ccc2c(-c3cn(C4CCCCO4)nc3-c3ccc(F)cc3)ccnc21` (stereo not drawn) [Compound 49], the chromatographic logP is 3.47. For the molecule `Fc1ccc(-c2c(-c3ccncc3)cnn2C2CCCCO2)cc1Cl` (stereo not drawn) [Compound 51, 4-[5-(3-chloro-4-fluorophenyl)-1-(tetrahydro-2H-pyran-2-yl)-1H-pyrazol-4-yl]pyridine], the chromatographic logP is 1.57. With `Fc1ccc(-c2nn(C3CCCCO3)cc2-c2cc(N3CCOCC3)ncn2)cc1` (stereo not drawn) [Compound 52], the chromatographic logP was determined as 1.49. As to `Cc1cc(-c2c(-c3ccncc3)cnn2C2CCCCO2)ccc1F` (stereo not drawn) [Compound 55], the chromatographic logP came out at 1.47. On the same count and under the same terms, for `Fc1ccc(-c2c(-c3ccncc3)cnn2C2CCCCO2)c(F)c1` (stereo not drawn) [Compound 56, 4-[5-(2,4-difluorophenyl)-1-(tetrahydro-2H-pyran-2-yl)-1H-pyrazol-4-yl]pyridine] the value was 1.35.

For `CC(C)(C)c1ccc(-c2c(-c3ccncc3)cnn2C2CCCCO2)cc1` (stereo not drawn) [Compound 57, 4-[5-(4-tert-butylphenyl)-1-(tetrahydro-2H-pyran-2-yl)-1H-pyrazol-4-yl]pyridine], the chromatographic logP came to 2.02. The same measure, in the same setting: to `N#Cc1cc(-c2c(-c3ccncc3)cnn2C2CCCCO2)ccc1F` (stereo not drawn) [Compound 61, 2-fluoro-5-[4-(pyridin-4-yl)-1-(tetrahydro-2H-pyran-2-yl)-1H-pyrazol-5-yl]benzonitrile] belongs 1.45. On the same count and under the same terms, to `COc1ccc(-c2nn(C3CCCCO3)cc2-c2cc(-n3cccn3)ncn2)cc1` (stereo not drawn) [Compound 62] belongs 3.32; to `CCNc1cc(-c2cn(C3CCCCO3)nc2-c2ccc(F)cc2)ncn1` (stereo not drawn) [Compound 63], 1.42. For `COc1cc(F)ccc1-c1c(-c2ccncc2)cnn1C1CCCCO1` (stereo not drawn) [Compound 64, 4-[5-(4-fluoro-2-methoxyphenyl)-1-(tetrahydro-2H-pyran-2-yl)-1H-pyrazol-4-yl]pyridine], the chromatographic logP came to 1.26. Take `COc1ccc(-c2nn(C3CCCCO3)cc2-c2ncnc3[nH]ccc23)cc1` (stereo not drawn) [Compound 65]: the chromatographic logP amounted to 1.54. On the same count and under the same terms, for `c1ccc(Oc2cccc(-c3c(-c4ccncc4)cnn3C3CCCCO3)c2)cc1` (stereo not drawn) [Compound 67, 4-[5-(3-phenoxyphenyl)-1-(tetrahydro-2H-pyran-2-yl)-1H-pyrazol-4-yl]pyridine] the value was 1.88; for `CS(=O)(=O)c1ccc(-c2c(-c3ccncc3)cnn2C2CCCCO2)cc1` (stereo not drawn) [Compound 68, 4-{5-[4-(methylsulphonyl)phenyl]-1-(tetrahydro-2H-pyran-2-yl)-1H-pyrazol-4-yl}pyridine], 0.96; for `COc1ccc(-c2nn(C3CCCCO3)cc2-c2ccnc(N)c2)cc1` (stereo not drawn) [Compound 69], 1.31. Still for that read-out and setting: for `FC(F)(F)Oc1ccc(-c2c(-c3ccncc3)cnn2C2CCCCO2)cc1` (stereo not drawn) [Compound 71] the value was 1.78; for `COc1ccc(-c2nn(C3CCCCO3)cc2-c2ccnc(C)c2)cc1` (stereo not drawn) [Compound 73], 1.33.

`CSc1nccc(-c2cn(C3CCCCO3)nc2-c2ccc(F)cc2)n1` (stereo not drawn) [Compound 74]: the chromatographic logP was 3.58. Still for that read-out and setting: to `Clc1cccc(-c2c(-c3ccncc3)cnn2C2CCCCO2)c1Cl` (stereo not drawn) [Compound 76, 4-[5-(2,3-dichlorophenyl)-1-(tetrahydro-2H-pyran-2-yl)-1H-pyrazol-4-yl]pyridine] belongs 1.66.

As to `COc1ccc(-c2nn(C3CCCCO3)cc2-c2ccnc(C)n2)cc1` (stereo not drawn) [Compound 77], the chromatographic logP was found to be 2.27. Regarding `Fc1ccc(-c2nn(-c3ccc(C(F)(F)F)cn3)cc2-c2ccncc2)cc1` [Compound 79], the chromatographic logP was determined as 2.64. Same read-out and setting: for `COc1ccc(-c2nn(C3CCCCO3)cc2-c2ccnc3[nH]ccc23)cc1` (stereo not drawn) [Compound 80] the value was 1.87.

Turning to `CC(C)(C)C(=O)Nc1cc(-c2cnn(C3CCCCO3)c2-c2cccc(C(F)(F)F)c2)ccn1` (stereo not drawn) [Compound 82], the chromatographic logP was 3.84.

Take `CNC(=O)c1cc(-c2cn(C3CCCCO3)nc2-c2cccc(Cl)c2)ccn1` (stereo not drawn) [Compound 83]: the chromatographic logP was 3.15. The same measure, in the same setting: for `CNC(=O)c1cc(-c2cn(C3CCCCO3)nc2-c2ccc(F)cc2)ccn1` (stereo not drawn) [Compound 90] the value was 2.72; for `O=C(Nc1ccccc1)c1cc(-c2cn(C3CCCCO3)nc2-c2ccc(F)cc2)ccn1` (stereo not drawn) [Compound 94], 4.34; for `NC(=O)c1cc(-c2cn(C3CCCCO3)nc2-c2cccc(Cl)c2)ccn1` (stereo not drawn) [Compound 95], 2.93. Take `O=C(Nc1ccccc1)c1cc(-c2cn(C3CCCCO3)nc2-c2cccc(Cl)c2)ccn1` (stereo not drawn) [Compound 96]: the chromatographic logP came out at 4.89. For the molecule `CC(C)n1ncc(-c2ccnc(N)c2)c1-c1ccc(F)cc1` [Compound 97], the chromatographic logP was found to be 1.25. For the molecule `c1ccc(COc2ccccc2-c2c(-c3ccncc3)cnn2C2CCCCO2)cc1` (stereo not drawn) [Compound 98, 4-{5-[2-(benzyloxy)phenyl]-1-(tetrahydro-2H-pyran-2-yl)-1H-pyrazol-4-yl}pyridine], the chromatographic logP stood at 1.64.

For `c1cnc2c(-c3c(-c4ccncc4)cnn3C3CCCCO3)cccc2c1` (stereo not drawn) [Compound 99, 8-[4-(pyridin-4-yl)-1-(tetrahydro-2H-pyran-2-yl)-1H-pyrazol-5-yl]quinoline], the chromatographic logP was 1.09. Same read-out and setting: for `Fc1ccc(-c2nn(Cc3cccnc3)cc2-c2ccncc2)cc1` [Compound 100] the value was 0.78; for `Fc1ccc(-c2nn(Cc3ccc(OC(F)F)cc3)cc2-c2ccncc2)cc1` [Compound 109], 1.88. The same measure, in the same setting: to `Fc1ccc(-c2nn(-c3nnc(C(F)(F)F)s3)cc2-c2ccncc2)cc1` [Compound 111] belongs 2.9; to `Fc1ccc(-c2nn(-c3cc(C(F)(F)F)ncn3)cc2-c2ccncc2)cc1` [Compound 112], 2.73. On to `Fc1ccc(-c2nn(Cc3ccccn3)cc2-c2ccncc2)cc1` [Compound 115], for which the chromatographic logP turned out to be 0.99. Take `Fc1ccc(-c2nn(CCc3ccccc3Cl)cc2-c2ccncc2)cc1` [Compound 119]: the chromatographic logP was determined as 2.04.

`Fc1ccc(-c2nn(Cc3ccncc3)cc2-c2ccncc2)cc1` [Compound 121]: the chromatographic logP was 0.25. In the case of `OCC(O)Cn1cc(-c2ccncc2)c(-c2ccc(F)cc2)n1` (stereo not drawn) [Compound 124], the chromatographic logP came to 0.17. `Fc1ccc(-c2nn(Cc3cccc(-c4ccccc4)c3)cc2-c2ccncc2)cc1` [Compound 125]: the chromatographic logP is 2.38.

As to `Fc1ccc(-c2nn(Cc3ccccc3F)cc2-c2ccncc2)cc1` [Compound 128], the chromatographic logP was 1.84.

For `Fc1ccc(Cn2cc(-c3ccncc3)c(-c3ccc(F)cc3)n2)cc1` [Compound 130], the chromatographic logP is 1.69.

Regarding `Fc1ccc(-c2nn(Cc3ccc(-c4ccccc4)cc3)cc2-c2ccncc2)cc1` [Compound 131], the chromatographic logP is 2.39.

For the molecule `Fc1ccc(-c2nn(Cc3ccc(F)c(Oc4ccccc4)c3)cc2-c2ccncc2)cc1` [Compound 139], the chromatographic logP stood at 2.4. As to `Fc1ccc(-c2nn(Cc3ncc[nH]3)cc2-c2ccncc2)cc1` [Compound 143], the chromatographic logP came out at 0.41. With `CC(=O)OCCn1cc(-c2ccncc2)c(-c2ccc(F)cc2)n1` [Compound 145], the chromatographic logP is 1.05. The same measure, in the same setting: to `CC(C)Cn1cc(-c2ccnc3c2CC(=O)N3)c(-c2ccc(F)cc2)n1` [Compound 147] belongs 2.6; to `C=CCNc1nccc(-c2cnn(CC(C)C)c2-c2ccc(F)cc2)n1` [Compound 149], 2.37.
